This is an account of results in patent US20220074923A1, “METHODS OF IDENTIFYING PARKIN-MEDIATED MITOPHAGY ACTIVATING AGENTS” (THE GOVERNING COUNCIL OF THE UNIVERSITY OF TORONTO, priority 2018, published 2022).

Assay [1] concerns HeLa cells stably expressing GFP parkin and mito-DsRed. Kind of assay: Mitochondrial clearance assay. It counts as cell-based. As to the method: HeLa cells stably expressing GFP parkin and mito-DsRed were seeded into 12-well plates containing coverslips and allowed to adhere overnight. Cells were then treated with DMSO or 0.5 μM SR3677 for 2 hours prior to addition of 10 μM CCCP for 24 hours. Cells were then washed with PBS, fixed with 4% PFA and washed with PBS again prior to the mounting of coverslips onto glass slides. Mitochondrial clearance was quantified by counting the number of cells in each treatment to retain mito-DsRed signal. 3 independent trials were performed with at least 50 cells quantified per trial.

Another assay relates to S2R+ cells. Kind of assay: mitoSOX mitochondrial superoxide staining. The conditions noted are these: co-treatment with paraquat. It counts as cell-based. Here is the method: A) Staining was performed with mitoSOX Red Mitochondrial Superoxide dye. B) Quantification of the fluorescence intensity of the mitoSOX probe in the indicated treatments (n=3). Data is presented as mean±s.e.m. P-values were determined by paired student's t-test, *P-value<0.05.
Whether SR3677 may protect against paraquat-induced phenotypes by interfering with paraquat's activity was also assessed. Paraquat gives rise to mitochondrial superoxide species that can be detected using mitoSOX, a fluorescent probe that is targeted to mitochondria, where it may be oxidized by superoxides. The oxidized mitoSOX species fluoresces upon encountering nucleic acid. The fluorescence intensity of Schneider's S2-R^+ cells, a cell line derived from dissociated embryos with a flat morphology amenable to imaging, was assessed following treatments with paraquat or paraquat and SR3677.

The next assay relates to HK2. The experiment in a line: HK2 mitochondrial fraction and phosphorylation (fractionation, Phos-tag immunoblot). It counts as cell-based. As to the method: (a) SH-SY5Y treated with either 0.5 μM SR3677 or with DMSO were separated into total cell cytosolic and mitochondrial fractions. Fractions were separated by SDS-PAGE and immunoblotting was performed with anti-HK2 and anti-ATP5A antibodies. (b) The proposed mechanism through which SR3677 increases Parkin recruitment. (c) Cells serum-starved for 2 hours were treated with either DMSO or SR3677 for 10 or 30 minutes prior to harvesting. Lysates were separated by SDS-PAGE and immunoblotting was performed with anti-HK2 and anti-actin antibodies. Samples were also run on Phos-tag gels in parallel and immunoblotting was performed with anti-HK2 antibody. (d) Densitometry analysis was performed to quantify HK2 levels in each sample, followed by (e) normalization to mitochondrial marker, CValpha. Average HK2/CValpha ratios are plotted (n=2 independent experiments). (f) Densitometry analysis was performed on the band indicated by the arrow in (c). The average intensity of the indicated band normalized to actin loading control is expressed[…] (n=3 independent experiments). P-values were determined by paired student's t-test for (b, f), *P<0.05. All error bars represent s.e.m. […]
(Immunoblotting shows a protein as a band on a membrane.)

For a further assay, the system named is TH-GAL4>UAS-mitoQC flies. The experiment in a line: In vivo mitoQC assay in dopaminergic neurons. Set-up: species or system Drosophila. The conditions noted are these: SR3677 with sublethal paraquat dose (1 mM), 7 days, vs water. Here is the method: Cells were treated with 50 μM chloroquine for 16 hours prior to addition of E64, leupeptin, SR3677 and CCCP in the indicated treatment group. For the in vivo mitoQC assays, 5 7-day old male TH-GAL4>UAS-mitoQC were placed into vials containing water (control), sublethal 1 mM paraquat, 1 mM SR3677 alone and in combination with paraquat for 7 days. Whole flies were then fixed overnight in 1% PFA and 0.1% Tx-100. Fly brains were then dissected and fixed with 4% PFA for 20 minutes. 3 10-minute PBS washes were performed in between each step. Fly brains were mounted in VectaShield™ mounting medium for imaging using the Zeiss LSM700 confocal fluorescence microscope with 40× 1.4 NA Oil Plan-APOCRAMAT objective and the appropriate lasers and filter. 0.8 μm z-stacks were acquired to capture dopaminergic neurons expressing the mitoQC transgene. Laser settings were kept constant within each trial. At least 2 fly brains were imaged for each treatment across 4 independent trials.
The mitoQC assay may also be performed in Drosophila to quantify mitophagy specifically in cell types of interest using the GAL4/UAS system. Briefly, the mitoQC transgene was expressed in dopaminergic neurons using the TH-GAL4 driver^41. Since CCCP cannot be administered without affecting the viability of the flies, 7-day old flies were fed the parkinsonian toxin, paraquat. […]

On to `CN(C)CCOc1cc(-c2cn[nH]c2)ccc1NC(=O)[C@@H]1COc2ccccc2O1` [SR3677], for which the “mitochondrial mass without CCCP” value in assay [1] (0.5 μM SR3677, 24 hour DMSO treatment) is “retained mitochondrial mass”. In assay [1] (pre-treated with 0.5 μM SR3677, 24 hour 10 μM CCCP), the “% of cells that retained mito-DsRed” value is reported as 28±8.21%. Moreover, in the assay with S2R+ cells, the “paraquat-mediated increase in mitochondrial superoxide levels” value was “does prevent the paraquat-mediated increase in mitochondrial superoxide levels”. Besides, in the assay on HK2 (SH-SY5Y cells, 0.5 μM), the “HK2 in the mitochondrial fraction” value is given as “More HK2 was observed in the mitochondrial fraction”. Besides, the “phosphorylation of HK2 (Phostag gels)” value with HK2 (serum-starved cells, 10 or 30 minutes) is on record as “Increased phosphorylation of HK2”. Moreover, the “percentage of red-only mitochondrial signal over the total mitochondrial signal” value with TH-GAL4>UAS-mitoQC flies was “greater than flies whose food was supplemented with water”.
